In US20070276034A1, “Compounds, compositions and methods for the treatment of synucleinopathies” (priority 2002, published 2007):
Read-outs that look alike come from different tables or passages of the source.

Legend:
Format in all cases: biochemical
IAPP fibrils [1] = biological target: T1, IAPP fibrils (Homo sapiens, UniProt P10997); test: Thioflavin T fluorometry - disruption of type 2 diabetes IAPP fibrils; conditions: 25 μM pre-fibrillized IAPP, 37° C., 3 days, read-out: % Inhibition IAPP (result ± S.D.)
T1 construct: purchased Bachem Inc
T1 sequence (P10997 34-70 limits assumed): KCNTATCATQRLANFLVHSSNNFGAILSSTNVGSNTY
Method: In this assay Thioflavin T binds specifically to fibrillar amyloid, and this binding produces a fluorescence enhancement at 485 nm that is directly proportional to the amount of IAPP fibrils present. The higher the fluorescence, the greater the amount of IAPP fibrils present (Naki et al, Lab. Invest. 65:104-110, 1991; Levine III, Protein Sci. 2:404-410, 1993; Amyloid: Int. J. Exp. Clin. Invest. 2:1-6, 1995).
(§1) In this study, 25 μM of pre-fibrillized IAPP (Bachem Inc) was incubated at 37° C. for 3 days either alone, or in the presence of one of the compounds or EDTA (at IAPP:test compound weight ratios of 1:1, 1:0.1, 1:0.01 or 1:0.001). Following 3-days of co-incubation, 50 μl of each incubation mixture was transferred into a 96-well microtiter plate containing 150 μl of distilled water and 50 μl of a Thioflavin T solution (i.e. 500 mM Thioflavin T in 250 mM phosphate buffer, pH 6.8). The fluorescence was read at 485 nm (444 nm excitation wavelength) using an ELISA plate fluorometer after subtraction with buffer alone or compound alone, as blank.

Aβ 1-42 fibrils [2] = biological target: T2, Aβ 1-42 fibrils (Homo sapiens, UniProt P05067); test: Thioflavin T fluorometry - disruption of pre-formed Aβ 1-42 Alzheimer's fibrils; conditions: 25 μM pre-fibrillized Aβ 1-42, 37° C., 3 days, read-out: % Inhibition Aβ (result ± S.D.)
T2 construct: purchased Bachem Inc
Source text: In one study, Thioflavin T fluorometry was used to determine the effects of the compounds, and of EDTA (as a negative control). In this assay Thioflavin T binds specifically to fibrillar amyloid, and this binding produces a fluorescence enhancement at 485 nm that is directly proportional to the amount of amyloid fibrils formed. The higher the fluorescence, the greater the amount of amyloid fibrils formed (Naki et al., Lab. Invest. 65:104-110, 1991; Levine III, Protein Sci. 2:404-410, 1993; Amyloid: Int. J. Exp. Clin. Invest. 2:1-6, 1995).
as §1, with “Aβ 1-42” for “IAPP”, “Aβ:test” for “IAPP:test”

monomeric Aβ 1-42 = biological target: T3, monomeric Aβ 1-42 (Homo sapiens, UniProt P05067); test: SDS-PAGE/Western blot of Aβ 1-42 after incubation with compounds; conditions: 25 μM pre-fibrillized Aβ 1-42, 37° C., 3 days, 0.2 μm filtrate, antibody 6E10
T3 construct: purchased Bachem Inc
Method: In this latter study, triplicate samples of pre-fibrillized Aβ 1-42 (25 μM) was incubated at 37° C. for 3 days, alone or in the presence of the compounds or EDTA. Five micrograms of each sample was then filtered through a 0.2 μm filter. Protein recovered from the filtrate was then loaded, and ran on a 10-20% Tris-Tricine SDS-PAGE, blotted to nitrocellulose and detected using an Aβ-antibody (clone 6E10; Senetek).

Aβ 1-42 fibrils [3] = biological target: T2, Aβ 1-42 fibrils; test: Circular dichroism spectroscopy of Aβ 1-42 fibrils; conditions: 3 days co-incubation, 25 μM Aβ 1-42 (FIG. 1, FIG. 2)
Method: Circular dichroism (CD) spectroscopy is a method that can be used to determine the effects of test compounds to disrupt the secondary structure conformation of amyloid fibrils. In one study, as described in this example, circular dichroism spectroscopy was used to determine the effects of different compounds of the invention on β-sheet conformation of Aβ 1-42 fibrils. For this study, Aβ 1-42 (Bachem Inc., Torrance, Calif.) was first dissolved in a 2 mM NaOH solution, maintaining the pH of these solutions above 10. […] Aβ 1-42 was then incubated at 37° C. in the absence or presence of different compounds at an Aβ:test compound wt/wt ratios of 1:0.1, 1:1 and 1:10. After 3 days of incubation, CD spectra were recorded on a Jasco 810 spectropolarimeter (Easton, Md.). All CD spectra were collected with 0.05 cm quartz cells. Wavelength traces were scanned from 190-260 nm at 0.5 nm increments with a bandwidth of 5 nm, at a scan speed of 10 nm/minute, a response time of 32 seconds, and a data pitch of 0.5 nm. The whole system was equilibrated and continuously flushed with nitrogen at 10 ml/minute. […] Ellipticity in degrees was converted to MRE ([Q]; molar residue ellipticity) using the formula [Q]=100•[…]; where Q is the ellipticity in degrees; […]

Aβ 1-42 fibrils [4] = biological target: T2, Aβ 1-42 fibrils; test: Congo red binding assay with Aβ 1-42 fibrils; conditions: 3-day incubation
Method: (§2) In the Congo red binding assay the ability of a test compound to alter amyloid (in this case, Aβ) binding to Congo red is quantified. In this assay, Aβ 1-42 and test compounds were incubated for 3 days and then vacuum filtered through a 0.2 μm filter. The amount of Aβ 1-42 retained in the filter was then quantitated following staining of the filter with Congo red. After appropriate washing of the filter, any lowering of the Congo red color on the filter in the presence of the test compound (compared to the Congo red staining of the amyloid protein in the absence of the test compound) was indicative of the test compound's ability to diminish/alter the amount of aggregated and congophilic Aβ.
In one study, the ability of Aβ fibrils to bind Congo red in the absence or presence of increasing amounts of the compounds or EDTA (at Aβ:test compound weight ratios of 1:1, 1:0.1, 1:0.01 or 1:0.001) was determined.

IAPP fibrils [5] = biological target: T1, IAPP fibrils; test: Congo red binding assay with IAPP fibrils; conditions: 3-day incubation
Method: as §2, with “of a given test compound” for “of a test compound”, “this case, IAPP) binding to” for “this case, Aβ) binding to”, “this assay, IAPP and test” for “this assay, Aβ 1-42 and test”, “amount of IAPP retained in” for “amount of Aβ 1-42 retained in”, “and congophilic IAPP.” for “and congophilic Aβ.”
In the study, the ability of IAPP fibrils to bind Congo red in the absence or presence of increasing amounts of the compounds or EDTA (at IAPP:test compound weight ratios of 1:1, 1:0.1, 1:0.01 or 1:0.001) was determined.

[6] = IAPP:test compound wt/wt ratio 1:0.001
[7] = IAPP:test compound wt/wt ratio 1:0.1
[8] = IAPP:test compound wt/wt ratio 1:1
[9] = Aβ:test compound wt/wt ratio 1:0.1
[10] = Aβ:test compound wt/wt ratio 1:1

T2 sequence (P05067 672-713): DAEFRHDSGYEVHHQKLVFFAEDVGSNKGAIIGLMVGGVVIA
T3 sequence (P05067 672-713): as above

Oc1ccc(CCc2ccc(O)c(O)c2)cc1O [Compound 4, 1,2-bis(3,4-dihydroxyphenyl)ethane]
inhibition (IAPP fibrils [1]; [6]): 17.3 ± 4.07% | inhibition (IAPP fibrils [1]; IAPP:test compound wt/wt ratio 1:0.01): 63.2 ± 2.09% | inhibition (IAPP fibrils [1]; [7]): 96 ± 1% | inhibition (IAPP fibrils [1]; [8]): 99.7 ± 0.23% | inhibition (Aβ 1-42 fibrils [2]; Aβ:test compound wt/wt ratio 1:0.001): 26.8 ± 4.8% | inhibition (Aβ 1-42 fibrils [2]; [9]): 97.4 ± 0.4% | inhibition (Aβ 1-42 fibrils [2]; [10]): 98.5 ± 0.77% | detection of Aβ 1-42 monomers (~4 kilodalton band) on Western blot (monomeric Aβ 1-42): not detected | disruption of β-sheet structure in Aβ 1-42 fibrils (CD minima at 218 nm) (Aβ 1-42 fibrils [3]): marked disruption of β-sheet structure | % Inhibition Aβ (result ± S.D.), Congo red binding (Aβ 1-42 fibrils [4]; Aβ:test compound wt/wt ratio 1:0.01): 16.4 ± 2.02% | % Inhibition Aβ (result ± S.D.), Congo red binding (Aβ 1-42 fibrils [4]; [9]): 46.8 ± 1.28% | % Inhibition Aβ (result ± S.D.), Congo red binding (Aβ 1-42 fibrils [4]; [10]): 73.0 ± 0.90% | % Inhibition IAPP (result ± S.D.), Congo red binding (IAPP fibrils [5]; [6]): 0.0 ± 1.05% | % Inhibition IAPP (result ± S.D.), Congo red binding (IAPP fibrils [5]; [7]): 25.4 ± 4.68% | % Inhibition IAPP (result ± S.D.), Congo red binding (IAPP fibrils [5]; [8]): 68.9±1.22%
